Test results from PubChem BioAssay AID330 (DTP/NCI, 2004).
Several values for one entry are separate records, joined by “and”; a condition that tells them apart may be missing. Equal values may be shown once. Inconclusive results and toxic doses are left out. Rule for the calls: active = survival T/C of 150% or more; inactive = T/C below 125% in these data. Peptide text beside a SMILES is read from it. * marks the point of attachment. Trt = c1ccc(C(c2ccccc2)(c2ccccc2)*)cc1; Benzhydryl = c1ccc(C(c2ccccc2)*)cc1; Cbz = O=C(OCc1ccccc1)*; OtBu = CC(C)(C)O*

Tested on: P388 leukemia ip, CD2F1 mice, survival T/C
Assay: NCI In Vivo Anticancer Drug Screen. Data for tumor model P388 Leukemia (intraperitoneal) in CD2F1 (CDF1) mice
Conditions: endpoint: median survival time, higher = longer survival
How it was run: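 Mice carrying the transplanted tumor received test compound or vehicle. Survival was recorded in each group, and the value is the treated-group measurement divided by that of the vehicle-treated control group.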

[1] = dose: 200.0 mg/kg/injection, schedule: Q01DX009 (ip), vehicle: saline with Tween-80
[2] = dose: 50.0 mg/kg/injection, schedule: Q01DX009 (ip), vehicle: saline
[3] = dose: 100.0 mg/kg/injection, schedule: Q01DX009 (ip), vehicle: saline
[4] = dose: 12.5 mg/kg/injection, schedule: Q04DX003 (ip), vehicle: saline with Tween-80
[5] = dose: 25.0 mg/kg/injection, schedule: Q04DX003 (ip), vehicle: saline with Tween-80
[6] = dose: 50.0 mg/kg/injection, schedule: Q01DX009 (ip), vehicle: Klucel (hydroxypropylcellulose) (HPC)
[7] = dose: 100.0 mg/kg/injection, schedule: Q01DX009 (ip), vehicle: Klucel (hydroxypropylcellulose) (HPC)
[8] = dose: 200.0 mg/kg/injection, schedule: Q01DX009 (ip), vehicle: Klucel (hydroxypropylcellulose) (HPC)
[9] = dose: 50.0 mg/kg/injection, schedule: Q01DX005 (ip), vehicle: saline with Tween-80
[10] = dose: 100.0 mg/kg/injection, schedule: Q01DX005 (ip), vehicle: saline with Tween-80
[11] = dose: 50.0 mg/kg/injection, schedule: Q01DX005 (ip), vehicle: Klucel (hydroxypropylcellulose) (HPC)
[12] = dose: 6.25 mg/kg/injection, schedule: Q01DX009 (ip), vehicle: saline with Tween-80
[13] = dose: 12.5 mg/kg/injection, schedule: Q01DX009 (ip), vehicle: saline with Tween-80
[14] = dose: 200.0 mg/kg/injection, schedule: Q01DX005 (ip), vehicle: saline with Tween-80

Measured: T/C

O=C(O)/C(Br)=C/c1ccccc1
inactive: dose: 50.0 mg/kg/injection, schedule: Q01DX009 (ip), vehicle: saline with Tween-80 87 % of control | dose: 100.0 mg/kg/injection, schedule: Q01DX009 (ip), vehicle: saline with Tween-80 91 % of control | [1] 87 % of control

O=C1C=CC(=O)C(N(CCO)CCO)=C1
inactive: dose: 12.5 mg/kg/injection, schedule: Q01DX009 (ip), vehicle: saline 99 % of control | dose: 12.5 mg/kg/injection, schedule: Q01DX009 (ip), vehicle: suspension in saline 100 % of control | dose: 25.0 mg/kg/injection, schedule: Q01DX009 (ip), vehicle: saline 94 % of control | dose: 25.0 mg/kg/injection, schedule: Q01DX009 (ip), vehicle: suspension in saline 103 % of control | [2] 95 % of control | dose: 50.0 mg/kg/injection, schedule: Q01DX009 (ip), vehicle: suspension in saline 113 % of control | [3] 95 % of control | dose: 100.0 mg/kg/injection, schedule: Q01DX009 (ip), vehicle: suspension in saline 109 % of control and 111 % of control

O=c1sc2ccccc2n2cccc12
inactive: dose: 60.0 mg/kg/injection, schedule: Q01DX005 (ip), vehicle: saline with Tween-80 92 % of control | dose: 120.0 mg/kg/injection, schedule: Q01DX005 (ip), vehicle: saline with Tween-80 94 % of control | dose: 240.0 mg/kg/injection, schedule: Q01DX005 (ip), vehicle: saline with Tween-80 92 % of control

CC(C)CCOC(=O)CN(CC(=O)OCCC(C)C)c1ccccc1
inactive: dose: 100.0 mg/kg/injection, schedule: Q04DX003 (ip), vehicle: saline with Tween-80 104 % of control | dose: 200.0 mg/kg/injection, schedule: Q04DX003 (ip), vehicle: saline with Tween-80 100 % of control | dose: 400.0 mg/kg/injection, schedule: Q04DX003 (ip), vehicle: saline with Tween-80 95 % of control

CCN(CC)CCCC(C)NC1CCCc2cc3c(cc21)C(=O)c1ccccc1C3=O (stereo unspecified)
inactive: dose: 6.25 mg/kg/injection, schedule: Q04DX003 (ip), vehicle: saline with Tween-80 98 % of control | [4] 94 % of control | [5] 90 % of control

CCc1cccc2c3c([nH]c12)C(CC)(CC(=O)O)OCC3 (stereo unspecified)
inactive: [6] 102 % of control | [7] 110 % of control | [8] 107 % of control

CCCCCC(=O)Nc1ncc([N+](=O)[O-])s1
inactive: [6] 116 % of control | [7] 113 % of control | [8] 98 % of control

CC(C)(C)OC(=O)CNC(=O)C(Cc1ccccc1)NC(=O)C(CSC(c1ccccc1)(c1ccccc1)c1ccccc1)NC(=O)CNC(=O)C(Cc1ccccc1)NC(=O)CNC(=O)C(CSC(c1ccccc1)c1ccccc1)NC(=O)C(CSC(c1ccccc1)(c1ccccc1)c1ccccc1)NC(=O)OCc1ccccc1 (stereo unspecified) (Cbz-C(Trt)C(Benzhydryl)GFGC(Trt)FG-OtBu; configuration not given here)
inactive: dose: 60.0 mg/kg/injection, schedule: Q01DX005 (ip), vehicle: Klucel (hydroxypropylcellulose) (HPC) 100 % of control | dose: 120.0 mg/kg/injection, schedule: Q01DX005 (ip), vehicle: Klucel (hydroxypropylcellulose) (HPC) 98 % of control

CCN(CC)CCOC(C)(C#CC(C)(O)CC)CC (stereo unspecified)
inactive: [9] 100 % of control | [10] 106 % of control

Cc1cc([N+](=O)[O-])cc(Cl)n1
inactive: dose: 3.12 mg/kg/injection, schedule: Q01DX009 (ip), vehicle: Klucel (hydroxypropylcellulose) (HPC) 106 % of control | dose: 6.25 mg/kg/injection, schedule: Q01DX009 (ip), vehicle: Klucel (hydroxypropylcellulose) (HPC) 99 % of control | dose: 12.5 mg/kg/injection, schedule: Q01DX009 (ip), vehicle: Klucel (hydroxypropylcellulose) (HPC) 100 % of control | dose: 25.0 mg/kg/injection, schedule: Q01DX009 (ip), vehicle: Klucel (hydroxypropylcellulose) (HPC) 106 % of control

CCCCOc1ccc2nccc(N/N=C/c3ccc(OC)c4ccccc34)c2c1
inactive: dose: 12.5 mg/kg/injection, schedule: Q01DX005 (ip), vehicle: Klucel (hydroxypropylcellulose) (HPC) 88 % of control | dose: 25.0 mg/kg/injection, schedule: Q01DX005 (ip), vehicle: Klucel (hydroxypropylcellulose) (HPC) 88 % of control | [11] 92 % of control and 94 % of control

O=C1N/C(=N/OF)C(F)C(NO)N1 (stereo unspecified)
inactive: [6] 103 % of control | [7] 103 % of control | [8] 101 % of control

Cc1ccc(S(=O)(=O)NC(CN)C(=O)O)cc1 (stereo unspecified)
inactive: dose: 25.0 mg/kg/injection, schedule: Q01DX009 (ip), vehicle: other 104 % of control | dose: 50.0 mg/kg/injection, schedule: Q01DX009 (ip), vehicle: other 101 % of control | dose: 100.0 mg/kg/injection, schedule: Q01DX009 (ip), vehicle: other 101 % of control | dose: 200.0 mg/kg/injection, schedule: Q01DX009 (ip), vehicle: other 107 % of control | dose: 400.0 mg/kg/injection, schedule: Q01DX009 (ip), vehicle: other 104 % of control

CCCC[As](CCCC)SC1CCC2(C)C(=CCC3C4CCC(=O)C4(C)CCC32)C1 (stereo unspecified)
inactive: dose: 12.5 mg/kg/injection, schedule: Q01DX009 (ip), vehicle: distilled water + Tween-80 98 % of control | dose: 25.0 mg/kg/injection, schedule: Q01DX009 (ip), vehicle: distilled water + Tween-80 98 % of control | dose: 50.0 mg/kg/injection, schedule: Q01DX009 (ip), vehicle: distilled water + Tween-80 92 % of control | dose: 100.0 mg/kg/injection, schedule: Q01DX009 (ip), vehicle: distilled water + Tween-80 89 % of control | dose: 200.0 mg/kg/injection, schedule: Q01DX009 (ip), vehicle: distilled water + Tween-80 107 % of control

Cc1ccc(-n2c(N)cc(=O)[nH]c2=S)nc1
inactive: dose: 56.25 mg/kg/injection, schedule: Q01DX001 (ip), vehicle: saline with Tween-80 104 % of control | dose: 112.5 mg/kg/injection, schedule: Q01DX001 (ip), vehicle: saline with Tween-80 100 % of control | dose: 225.0 mg/kg/injection, schedule: Q01DX001 (ip), vehicle: saline with Tween-80 90 % of control

CCc1cc2c(cc1C(=O)CBr)C(C)(C)CCC2(C)C
inactive: [12] 109 % of control | [13] 113 % of control | [4] 118 % of control | [5] 113 % of control

COc1ccc(C2CC(=O)NC(N)=N2)c(O)c1 (stereo unspecified)
inactive: [2] 103 % of control | [3] 104 % of control | dose: 200.0 mg/kg/injection, schedule: Q01DX009 (ip), vehicle: saline 103 % of control

Cc1cc(NC(=O)c2ccc(C(=O)Nc3ccc(N=Nc4cc(S(=O)(=O)O)c5cccc(S(=O)(=O)O)c5c4)c(C)c3)cc2)ccc1N=Nc1cc(S(=O)(=O)O)c2cccc(S(=O)(=O)O)c2c1
inactive: [9] 94 % of control | [10] 93 % of control | [14] 98 % of control

COc1cccc(/C=C2/SC(=S)N(Cc3ccco3)C2=O)c1OC
inactive: dose: 12.5 mg/kg/injection, schedule: Q01DX005 (ip), vehicle: saline with Tween-80 100 % of control | dose: 25.0 mg/kg/injection, schedule: Q01DX005 (ip), vehicle: saline with Tween-80 90 % of control | [9] 90 % of control and 91 % of control

Cc1c2cc[n+](C)cc2c(C)c2c1[nH]c1ccc(O)c(-[n+]3ccccc3)c12
inactive: dose: 2.5 mg/kg/injection, schedule: Q04DX003 (ip), vehicle: saline 113 % of control | dose: 5.0 mg/kg/injection, schedule: Q04DX003 (ip), vehicle: saline 111 % of control

COc1nc(Cl)nc(OC)n1
inactive: [1] 86 % of control

CN(C)c1cc(N(C)C)c2cc(-c3ccccc3)sc2n1
inactive: [6] 98 % of control | [7] 103 % of control | [8] 96 % of control

CCCCCCCCCCCn1nnnc1N
inactive: [9] 102 % of control | [10] 93 % of control | [14] 96 % of control

CC1C/C(=C2/NC3CCCCC3NC2=O)C(=O)O1 (stereo unspecified)
inactive: [12] 100 % of control | [13] 95 % of control | dose: 25.0 mg/kg/injection, schedule: Q01DX009 (ip), vehicle: saline with Tween-80 92 % of control

COc1ccccc1P(=O)(CCP(=O)(c1ccccc1)c1ccccc1OC)c1ccccc1 (stereo unspecified)
inactive: [11] 103 % of control | dose: 100.0 mg/kg/injection, schedule: Q01DX005 (ip), vehicle: Klucel (hydroxypropylcellulose) (HPC) 97 % of control | dose: 200.0 mg/kg/injection, schedule: Q01DX005 (ip), vehicle: Klucel (hydroxypropylcellulose) (HPC) 91 % of control
